Data taken from patent US7317002B2, “Site-specific preparation of polyethylene glycol-GRF conjugates” (Applied Research Systems ARS Holding N.V., priority 1997, dated 2008).
No end group written: not given here.

What was measured:
[1] = target: T1, human growth hormone releasing factor receptor (hGRF-R) (Homo sapiens, UniProt Q02643); experiment: CHO-hGRFR-LUC in vitro assay (luciferase reporter gene assay); format: cell-based; settings: DMSO and nicotinamide preparations; FIGS. 5-7
T1 construct: expressed in transfected cells; host or cells: CHO-DUKX (clone CHO-hGRFR-LUC 1-11-20)
T1 sequence (Q02643 23-423): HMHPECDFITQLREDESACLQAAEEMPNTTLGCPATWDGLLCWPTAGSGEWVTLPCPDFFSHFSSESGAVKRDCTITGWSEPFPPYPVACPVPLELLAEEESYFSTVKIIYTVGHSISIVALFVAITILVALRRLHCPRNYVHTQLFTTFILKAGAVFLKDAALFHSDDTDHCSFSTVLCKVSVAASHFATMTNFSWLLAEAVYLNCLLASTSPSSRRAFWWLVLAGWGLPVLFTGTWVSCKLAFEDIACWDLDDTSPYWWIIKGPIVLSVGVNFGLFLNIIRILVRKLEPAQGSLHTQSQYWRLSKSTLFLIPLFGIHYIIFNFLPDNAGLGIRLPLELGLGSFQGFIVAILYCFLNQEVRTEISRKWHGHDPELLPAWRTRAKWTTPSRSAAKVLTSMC
Source text: CHO-hGRFR-LUC in Vitro Assay
CHO-hGRFR-LUC (clone 1-11-20) is a cloned cell line that had been obtained by cotransfection of the pcDNA3-hGRF-R and pTF5-53 LUC vectors into CHO-DUKX cell line.
The plasmid pcDNA3-hGRF-R was constructed by inserting the human growth hormone releasing factor receptor (hGRF-R) cDNA into pcDNA3 expression vector. The Bluescript plasmid containing hGRF-R cDNA was kindly provided by Dr. B. Gaylinn (University of Virginia) the pcDNA3 mammalian expression vector was obtained from Invitrogen. The hGRF-R coding sequence was driven by the human cytomegalovirus (CMV) promoter.
The plasmid pTF5-53LUC was constructed by inserting the c-fos cAMP response element along with its endogenous promoter upstream of the luciferase coding sequence in plasmid poLuc. The cAMP response element and the c-fos promoter were obtained from the plasmid pTF5-53 (described in Fish et al, 1989). The promoterless reporter gene vector (poLuc) with multiple cloning sites upstream of the luciferase coding sequence was obtained from Dr. Brasier (University of Texas, Galveston).
These CHO-DUKX cells obtained by the above co-transfection were routinely grown in MEM alpha medium containing ribonucleosides and deoxyribonucleosides and supplemented with 10% fetal calf serum plus 600 μg/ml geneticin G418 sulfate.
The cells were seeded (40,000 cells/well) in white 96-well plates (Dynatech) and incubated for 16-18 hrs in 200 μl growth medium before the assay.
The next day, the medium was removed and replaced with a medium containing different concentrations of hGRF(1-29) in-house reference standard (Bachem) or different hGRF-PEG conjugates before incubating the plates at 37° C., 5% CO2 for two hours. At the end of incubation, CHO-hGRFR-LUC cells were washed twice with 200 μl of PBS (Sigma) and then lysed by adding 50 μl of a cell culture lyses reagent (Promega) to each well. After a further 15-minute incubation at room temperature, the plates were read in a luminometer (Dynatech) after introducing 150 μl of a luciferase assay reagent (Promega).
As an alternative method, CHO-hGRFR-LUC cells, seeded at 50,000 cells/well, at the end of incubation with different hGRF-PEG conjugates, were washed with PBS, as above discussed. To each well 100 μl PBS containing calcium and magnesium ions was added, prior to addition of 100 μl of Luclite (Packard). After 10 minutes incubation at room temperature, plates were read in luminometer (Lumicount-Packard).
Results were expressed as relative light unit (RLU).

rat pituitary cell = experiment: In vitro rat pituitary cell bioassay (GH release); format: cell-based; settings: two DMSO preparations; FIGS. 8 and 9
Experimental: In vitro rat pituitary cell bioassay for hGRF(1-29)
The animals (SPF male Sprague-Dawley rats 200 g, b.w.) were sacrificed by CO2 inhalation and the pituitaries removed. The tissue was finely minced and put into a bottle with the enzyme solution for tissue digestion. The bottle was placed in an incubator at 37° C. for 1 hour.
The digested tissue was recovered and the cells washed twice, counted and adjusted to a concentration of 5×10^5/ml. The cells were plated out in a 48-well plate (200 μl/well) and the plate placed in an incubator for 72 hrs.
After 72 hrs the cells were incubated with different concentrations of hGRF for 4 hours. At the end of the incubation period the supernatants were collected and stored at −80° C.
The GH content in each sample was assayed by a commercial rat GH radioimmunoassay kit.

GH serum levels = experiment: In vivo assay: serum GH levels after i.v. injection in male rats; parameters: species or system Sprague-Dawley rats; settings: for GH serum levels induced, compared with hGRF1-29: 400 μg i.v., rats, DMSO preparations, FIG. 11A
Experimental: (§1) SPF adult male Sprague-Dawley rats, 200-250 g b.w, supplied by Charles River, are used after an acclimatisation period of at least 7 days.
(§2) The animal was injected i.v. with hGRF(1-29) (400 μg/rat). A few minutes before blood collection, the animal was anaesthetized (ketamine-xylazine). […] The sample was divided into two aliquots: 1 ml was collected as such and serum was obtained after an incubation period of about 3 hours at 37° C. and subsequent centrifugation; the remaining 1 ml was collected into a vial containing 50 μl of a 4 mg/ml heparin solution, immediately stored on ice and plasma was obtained after centrifugation at 4° C.
(§3) Blood samples were collected at different time points from the injection of the test compound using different animals. In each experimental session a total of three rats for each time point was used.
(§4) Plasma and serum samples were immediately frozen and stored at −20° C.
(§5) GH serum levels were measured by a commercial RIA kit; hGRF plasma levels were measured by a commercial RIA kit for hGRF(1-44).

[2] = In vivo assay: plasma hGRF levels after i.v. injection in male rats; parameters: species or system Sprague-Dawley rats
Experimental: as §1, §2, §3, §4, §5

[3] = Solubility in aqueous buffer; format: physicochemical; settings: water solution at neutral or slightly alkaline pH
[4] = cited from earlier work

Molecule	biological effect (activity) in the CHO-hGRFR-LUC in vitro assay [1]	GH serum levels induced, compared with hGRF1-29 (GH serum levels)	also measured
hGRF(3-29) (DAIFTNSYRKVLGQLSARKLLQDIMSR; ends and bridges not checked; UniProt P01286 34-60, looked up, fragment) [Human GRF3-29, two preparations, supplied by Bachem and by ISL, reference compound]	did not possess a significant in vitro activity		
N^α-(PEG5,000—CH2—CO—Nle—CO)[Lys(MPEG5,000—CH2—CO—Nle—CO)^12,21-hGRF(1-29)—NH2] [GRF-3PEG]		lower activity	GH release from rat pituitary cell in vitro (rank of activity) (rat pituitary cell): then GRF-3PEG
[Lys(MPEG5,000—CH2—CO—Nle—CO)^12,21-hGRF(1-29)—NH2] [GRF-2PEG]		comparable to those obtained with hGRF1-29	
[Lys(MPEG5,000—CH2—CO—Nle—CO)^12-hGRF(1-29)—NH2] [GRF-1PEG 2nd peak]	more active than the GRF-2PEG and GRF-3PEG	comparable to those obtained with hGRF1-29	
CC[C@H](C)[C@H](NC(=O)[C@H](C)NC(=O)[C@H](CC(=O)O)NC(=O)[C@H](C)NC(=O)[C@@H](N)Cc1ccc(O)cc1)C(=O)N[C@@H](Cc1ccccc1)C(=O)N[C@H](C(=O)N[C@@H](CC(N)=O)C(=O)N[C@@H](CO)C(=O)N[C@@H](Cc1ccc(O)cc1)C(=O)N[C@@H](CCCNC(=N)N)C(=O)N[C@@H](CCCCN)C(=O)N[C@H](C(=O)N[C@@H](CC(C)C)C(=O)NCC(=O)N[C@@H](CCC(N)=O)C(=O)N[C@@H](CC(C)C)C(=O)N[C@@H](CO)C(=O)N[C@@H](C)C(=O)N[C@@H](CCCNC(=N)N)C(=O)N[C@@H](CCCCN)C(=O)N[C@@H](CC(C)C)C(=O)N[C@@H](CC(C)C)C(=O)N[C@@H](CCC(N)=O)C(=O)N[C@@H](CC(=O)O)C(=O)N[C@H](C(=O)N[C@@H](CCSC)C(=O)N[C@@H](CO)C(=O)N[C@@H](CCCNC(=N)N)C(N)=O)[C@@H](C)CC)C(C)C)[C@@H](C)O [hGRF, hGRF(1-29)—NH2, reference compound]	No difference		time at which serum GH returned to basal levels (GH serum levels; 400 μg/rat i.v., male rats): 60 min; time of serum GH peak after i.v. injection (GH serum levels; 400 μg/rat i.v., male rats): 10 min; plasma hGRF concentrations up to 60 min ([2]; 400 μg/rat i.v., male rats, FIG. 10): maintained a sustained level; Tmax ([2]; male, Sprague-Dawley, rat, in vivo, iv, 400 ug/animal): 10 min; solubility in neutral/alkaline buffer solution [3]: low solubility
[Lys(MPEG5,000—CH2—CO—Nle—CO)^21-hGRF(1-29)—NH2] [GRF-1PEG 1st peak]	more active than the GRF-2PEG and GRF-3PEG	comparable to those obtained with hGRF1-29	GH release from rat pituitary cell in vitro (rank of activity) (rat pituitary cell): the most active compound
GRF: peptide secreted by the hypothalamus which promotes the release of growth hormone; exists as 44-, 40-, or 37-amino acid peptide			biological half-life [4]: 12 to 30 minutes
